Experimental data: patent US9365522B2, “Pyrazole amide derivative” (AMGEN INC., priority 2015, dated 2016)

biological target: T1, ligand binding domain of human ROR gamma (Homo sapiens, UniProt P51449); assay: ROR gamma reporter gene assay (GAL4-RORγ LBD luciferase, Dual-Glo); type: cell-based; settings: HEK293T cells transfected with pM-ROR gamma, 8 concentrations 3.5 nM to 10.5 μM, 24 h incubation; read-out: result (pIC50, inhibition of RORγ transcriptional activity) (converted)
T1 construct: NM_001001523; expressed in transfected cells; host or cells: HEK293T
T1 sequence (P51449 247-497 isoform P51449-2): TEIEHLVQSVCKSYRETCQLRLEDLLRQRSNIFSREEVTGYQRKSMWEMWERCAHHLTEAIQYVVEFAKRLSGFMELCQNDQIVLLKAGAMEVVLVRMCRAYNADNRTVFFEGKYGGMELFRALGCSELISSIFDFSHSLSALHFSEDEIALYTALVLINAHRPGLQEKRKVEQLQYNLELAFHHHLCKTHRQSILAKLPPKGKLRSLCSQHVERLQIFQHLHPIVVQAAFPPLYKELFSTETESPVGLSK
Summary of the method: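 First, HEK293T cells are transfected with the GAL4–RORγ LBD construct, a 5×UAS luciferase reporter and a constitutive renilla control. Next, test compounds are added over eight concentrations (3.5 nM to 10.5 μM). After 24 h at 37 °C, Dual-Glo luminescence is measured and pIC50 fitted.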

Structure (SMILES) | IC50 [pM]
COc1cccc(Cl)c1C(=O)CN(CC(C)(C)C)C(=O)c1cnn([C@H]2CC[C@](C)(C(=O)O)CC2)c1C(F)(F)F [Example 253, trans-4-(4-((2-(2-chloro-6-methoxyphenyl)-2-oxoethyl)-(2,2-dimethylpropyl)carbamoyl)-5-(trifluoromethyl)pyrazol-1-yl)-1-methylcyclohexane-1-carboxylic acid] | 45700
Cc1cc(Cl)c(C(=O)CN(CC(C)(C)C)C(=O)c2cnn([C@H]3CC[C@](C)(C(=O)O)CC3)c2Cl)c(Cl)c1 [Example 359, trans-4-(5-chloro-4-((2-(2,6-dichloro-4-methylphenyl)-2-oxoethyl)-(2,2-dimethylpropyl)carbarnoyl)pyrazol-1-yl)-1-methylcyclohexane-1-carboxylic acid] | 26300
CCC(C)(C)CN(CC(=O)c1c(Cl)cc(F)cc1Cl)C(=O)c1cnn([C@H]2CC[C@](C)(C(=O)O)CC2)c1C(F)(F)F [Example 302, trans-4-(4-((2-(2,6-dichloro-4-fluorophenyl)-2-oxoethyl)-(2,2-dimethylbutyl)carbamoyl)-5-(trifluoromethyl)pyrazol-1-yl)-1-methylcyclohexane-1-carboxylic acid] | 14800
CC1(C)CCC(N(CC(=O)c2c(Cl)cncc2Cl)C(=O)c2cnn([C@H]3CC[C@H](C(=O)O)CC3)c2C(F)(F)F)CC1 [Example 169, trans-4-(4-((2-(3,5-dichloropyridin-4-yl)-2-oxoethyl)-(4,4-dimethylcyclohexyl)carbamoyl)-5-(trifluoromethyl)pyrazol-1-yl)cyclohexane-1-carboxylic acid] | 40700
CC(C)(C)CN(CC(=O)c1c(Cl)cccc1C(F)(F)F)C(=O)c1cnn(C23CCC(C(=O)O)(CC2)CC3)c1C(F)(F)F [Example 263, 4-(4-((2-(2-chloro-6-(trifluoromethyl)phenyl)-2-oxoethyl)-(2,2-dimethylpropyl)carbamoyl)-5-(trifluoromethyl)pyrazol-1-yl)bicyclo[2.2.2]octane-1-carboxylic acid] | 5890
CC[C@]1(C(=O)O)CC[C@H](n2ncc(C(=O)N(CC(=O)c3c(Cl)cncc3Cl)Cc3cc(F)cc(F)c3)c2C(F)(F)F)CC1 [Example 156, trans-4-(4-((2-(3,5-dichloropyridin-4-yl)-2-oxoethyl)-((3,5-difluorophenyl)methyl)carbamoyl)-5-(trifluoromethyl)pyrazol-1-yl)-1-ethylcyclohexane-1-carboxylic acid] | 1.02e+06
CC(C)(C)CN(CC(=O)c1c[nH]c2cccc(Cl)c12)C(=O)c1cnn([C@H]2CC[C@](C)(C(=O)O)CC2)c1C(F)(F)F [Example 352, trans-4-(4-((2-(4-chloro-1H-indol-3-yl)-2-oxoethyl)-(2,2-dimethylpropyl)carbamoyl)-5-(trifluoromethyl)pyrazol-1-yl)-1-methylcyclohexane-1-carboxylic acid] | 4.07e+06
CC(C)CC(C)N(CC(=O)c1c(Cl)cncc1Cl)C(=O)c1cnn([C@H]2CC[C@](C)(C(=O)O)CC2)c1C(F)(F)F (stereo partly drawn) [Example 312, trans-4-(4-((2-(3,5-dichloropyridin-4-yl)-2-oxoethyl)-(4-methylpentan-2-yl)carbamoyl)-5-(trifluoromethyl)pyrazol-1-yl)-1-methylcyclohexane-1-carboxylic acid] | 52500
CC(C)(C)C#CCN(CC(=O)c1c(Cl)cc(Cl)cc1Cl)C(=O)c1cnn([C@H]2CC[C@](C)(C(=O)O)CC2)c1C(F)(F)F [Example 207, trans-4-(4-(4,4-dimethylpent-2-ynyl-(2-oxo-2-(2,4,6-trichlorophenyl)ethyl)carbamoyl)-5-(trifluoromethyl)pyrazol-1-yl)-1-methylcyclohexane-1-carboxylic acid] | 63100
CC1(C)CC(CN(CC(=O)c2c(Cl)cc(Cl)cc2Cl)C(=O)c2cnn(C34CCC(C(=O)O)(CC3)CC4)c2C(F)(F)F)C1 [Example 256, 4-(4-((3,3-dimethylcyclobutyl)methyl-(2-oxo-2-(2,4,6-trichlorophenyl)ethyl)carbamoyl)-5-(trifluoromethyl)pyrazol-1-yl)bicyclo[2.2.2]octane-1-carboxylic acid] | 6030
CC1(C)[C@@H]2C[C@H](N(C[C@H](O)c3c(F)cccc3Cl)C(=O)c3cnn([C@H]4CC[C@](C)(C(=O)O)CC4)c3C(F)(F)F)C[C@@H]21 [Example 354, trans-4-(4-((2-(2-chloro-6-fluorophenyl)-2-hydroxyethyl)((1R,3r,5S)-6,6-dimethylbicyclo[3.1.0]hexan-3-yl)carbamoyl)-5-(trifluoromethyl)-1H-pyrazol-1-yl)-1-methylcyclohexanecarboxylic acid] | 513000
C[C@]1(C(=O)O)CC[C@H](n2ncc(C(=O)N(CC(=O)c3c(Cl)cc(F)cc3Cl)CC3CC4(CC4)C3)c2C(F)(F)F)CC1 [Example 202, trans-4-(4-((2-(2,6-dichloro-4-fluorophenyl)-2-oxoethyl)-(spiro[2.3]hexan-5-ylmethyl)carbamoyl)-5-(trifluoromethyl)pyrazol-1-yl)-1-methylcyclohexane-1-carboxylic acid] | 7940
C[C@]1(C(=O)O)CC[C@H](n2ncc(C(=O)N(CCN3CCCC(F)C3)CC(=O)c3c(Cl)cc(F)cc3Cl)c2C(F)(F)F)CC1 (stereo partly drawn) [Example 353, trans-4-(4-((2-(2,6-dichloro-4-fluorophenyl)-2-oxoethyl)-(2-(3-fluoropiperidin-1-yl)ethyl)carbamoyl)-5-(trifluoromethyl)pyrazol-1-yl)-1-methylcyclohexane-1-carboxylic acid] | 178000

Second part, the molecule after the results:

IC50 [pM] | Structure (SMILES)
204000 | O=C(CN(Cc1ccc(F)cc1)C(=O)c1cnn([C@H]2CC[C@](O)(C(=O)O)CC2)c1C(F)(F)F)c1c(Cl)cncc1Cl [Example 105, cis-4-(4-((2-(3,5-dichloropyridin-4-yl)-2-oxoethyl)-((4-fluorophenyl)methyl)carbamoyl)-5-(trifluoromethyl)pyrazol-1-yl)-1-hydroxycyclohexane-1-carboxylic acid]
195000 | O=C(CN(CC1CCC1)C(=O)c1cnn([C@H]2CC[C@H](C(=O)O)CC2)c1C(F)(F)F)c1c(Cl)cncc1Cl [Example 28, trans-4-(4-((cyclobutylmethyl)(2-(3,5-dichloropyridin-4-yl)-2-oxoethyl)carbamoyl)-5-(trifluoromethyl)-1H-pyrazol-1-yl)cyclohexanecarboxylic acid]
200000 | CC(C)(C)CC1CC(CN(CC(=O)c2c(Cl)cncc2Cl)C(=O)c2cnn([C@H]3CC[C@H](C(=O)O)CC3)c2C(F)(F)F)C1 (stereo partly drawn) [Example 140, trans-4-(4-((2-(3,5-dichloropyridin-4-yl)-2-oxoethyl)-((3-(2,2-dimethylpropyl)cyclobutyl)methyl)carbamoyl)-5-(trifluoromethyl)pyrazol-1-yl)cyclohexane-1-carboxylic acid]
107000 | CC(F)(F)c1c(C(=O)N(CC(=O)c2c(Cl)cncc2Cl)Cc2ccc(F)cc2)cnn1[C@H]1CC[C@H](C(=O)O)CC1 [Example 84, trans-4-(4-((2-(3,5-dichloropyridin-4-yl)-2-oxoethyl)(4-fluorobenzyl)carbamoyl)-5-(1,1-difluoroethyl)-1H-pyrazol-1-yl)cyclohexanecarboxylic acid]
61700 | COc1cc(Cl)cc(Cl)c1C(=O)CN(Cc1cc(F)cc(F)c1)C(=O)c1cnn([C@H]2CC[C@H](C(=O)O)CC2)c1C(F)(F)F [Example 112, trans-4-(4-((2-(2,4-dichloro-6-methoxyphenyl)-2-oxoethyl)-((3,5-difluorophenyl)methyl)carbamoyl)-5-(trifluoromethyl)pyrazol-1-yl)cyclohexane-1-carboxylic acid]
83200 | CC(C)(C)[C@H]1C[C@@H](N(CC(=O)c2c(Cl)cncc2Cl)C(=O)c2cnn([C@H]3CC[C@H](C(=O)O)CC3)c2C(F)(F)F)C1 [Example 131, trans-4-(4-((3-tert-butylcyclobutyl)-(2-(3,5-dichloropyridin-4-yl)-2-oxoethyl)carbamoyl)-5-(trifluoromethyl)pyrazol-1-yl)cyclohexane-1-carboxylic acid]
8.13e+06 | O=C(CN(Cc1ccnnc1)C(=O)c1cnn([C@H]2CC[C@H](C(=O)O)CC2)c1C(F)(F)F)c1c(Cl)cccc1Cl [Example 151, trans-4-(4-((2-(2,6-dichlorophenyl)-2-oxoethyl)-(pyridazin-4-ylmethyl)carbamoyl)-5-(trifluoromethyl)pyrazol-1-yl)cyclohexane-1-carboxylic acid]
105000 | O=C(CN(Cc1cc(F)cc(F)c1)C(=O)c1cnn([C@H]2CC[C@H](C(=O)O)CC2)c1C(F)(F)F)c1ccccc1Cl [Example 99, trans-4-(4-((2-(2-chlorophenyl)-2-oxoethyl)-((3,5-difluorophenyl)methyl)carbamoyl)-5-(trifluoromethyl)pyrazol-1-yl)cyclohexane-1-carboxylic acid]
28800 | O=C(c1cnn([C@H]2CC[C@H](C(=O)O)CC2)c1C(F)(F)F)N(Cc1ccc(F)cc1)CC(F)(F)c1c(Cl)cccc1Cl [Example 96, trans-4-(4-((2-(2,6-dichlorophenyl)-2,2-difluoroethyl)-((4-fluorophenyl)methyl)carbamoyl)-5-(trifluoromethyl)pyrazol-1-yl)cyclohexane-1-carboxylic acid]
